In US20150045407A1, “MTK1-ACTIN INHIBITORS AND METHODS OF USE” (THE ARIZONA BOARD OF REGENTS ON BEHALF OF THE UNIVERSITY OF …, priority 2013, published 2015):
“Also recorded” adds a separate entry of the source.

Tests used:
PI3K = conditions: Smirnova et al., 2012; cited from earlier work
HER3 = HER3 phosphorylation in HRG-stimulated MCF-7 cell lysates (immunoblot); conditions: for Effect on phosphorylation (activation) of HER3: MCF-7 cell lysates, 1 μg/ml cytochalasin D 30 minutes, then 10 nM HRG 12 minutes
Description: (§3) MCF-7 cells were maintained in the same media as T-47D cells and supplemented additionally with 10 μg/ml insulin. Prior to experimental procedures, cells were cultured in DMEM supplemented only with 1% penicillin-streptomycin for 16 hrs. […] Cells were treated with 1 μg/ml Cytochalasin D for 30 minutes prior to addition of HRG.
(§4) Images were obtained using ChemiDoc™ XRS+ (BIO-RAD) and quantification was performed with Image Lab Software. […] All commercial antibodies were used according to manufacturer recommendations.

MTK1/HER3 association = test: HRG-induced MTK1/HER3 association, MTK1 immunoprecipitation and immunoblot in MCF-7 cells; conditions: then 10 nM HRG 12 minutes; for Effect on HRG-induced MTK1/HER3 association: MCF-7 cells pre-treated with 0, 50, 100 or 200 nM lapatinib for 1 hour, pTyr immunoblot of MTK1 IP
Description: as §3, §4
The cells were then washed twice with ice-cold 1× phosphate buffered saline pH 7.4. […] Immune complexes recovered using protein A-Sepharose beads (Sigma Cat# P3391) were washed twice with ice-cold lysis buffer and denatured with Laemmli sample buffer.

MCF-7 cells [1] = test: Scratch assay, HRG-induced cell migration; assay type: cell-based, human; conditions: 250 nM lapatinib pre-treatment, 10 nM HRG
Description: MCF-7 cells were seeded (onto 10 cm cell culture plates, VWR #353003) at a density of 5.0×10^6 cells and allowed to adhere for 16 hours. The cells were then transfected with 434 pmol of siRNA specific for MTK1 (Thermo Scientific ON-TARGETplus SMARTpool, Human MAP3K4 (4216) Cat #L-003789-00-0005) or non-targeting (NS) (ON-TARGETplus Non-targeting Pool Cat #D-001810-10-05) as control using lipofectamine 2000 according to manufacture recommendations. The cells were transfected with siRNA a second time 24 hours later using lipofectamine 2000 to enhance knockdown efficiency. Twenty-four hours after the second transfection the cells were detached using 0.25% trypsin (Invitrogen #15050-065). The cells were counted and seeded onto 12 well plates (VWR #62406-165) at a density of 0.7×10^6 cells per well for pH measurements and scratch assays or at density of 0.4×10^6 cells per well for proliferation assays. MTK1 knockdown efficiency was determined by immunoblot analysis using 150 μg whole cell lysate at 120 hours post-secondary transfection. Each condition was performed in triplicate and repeated a minimum of 3 times. Data shown for each condition represents n=3. Statistical analysis was performed as described above.
Scratch assays were performed in 12-well plates using MCF-7 cells at a density of 0.7×10^6 cells per well. […]

MCF-7 cells [2] = test: HRG-induced extracellular acidification, media pH measurement; assay type: cell-based, human
Description: (§1) MCF-7 and T-47D cells were seeded in complete growth media at a density of 0.4×10^6 cells per well in 12-well plates (VWR #62406-165) for proliferation assays and 0.7×10^6 cells per well for pH measurements. Cells were allowed to adhere for 16 hours, followed by 4 hour serum starvation in DMEM, 1% penicillin-streptomycin without fetal bovine serum. […] Each condition was performed in triplicate and repeated a minimum of 3 times. After 24 hours, the cells were counted using a TC-10 Bio-Rad automated cell counter and the media pH was recorded using a pH meter probe. Data shown for each condition represents n=3. A two sided student t-test with standard deviation were used to perform statistical analyses on proliferation rates and media pH measurements. Statistical significance was determined by a p-value ≦0.05.
(§2) MCF-7 cells were seeded (onto 10 cm cell culture plates, VWR #353003) at a density of 5.0×10^6 cells and allowed to adhere for 16 hours. […] The cells were counted and seeded onto 12 well plates (VWR #62406-165) at a density of 0.7×10^6 cells per well for pH measurements and scratch assays or at density of 0.4×10^6 cells per well for proliferation assays. MTK1 knockdown efficiency was determined by immunoblot analysis using 150 μg whole cell lysate at 120 hours post-secondary transfection. […]

MCF-7 cells [3] = test: Cell proliferation and viability (automated cell count, trypan blue); assay type: cell-based, human; conditions: 10 nM HRG or 3.3 nM EGF, 24 hours
Description: as §1, §2

Cc1ccc([N+](=O)[O-])cc1S(=O)(=O)N(C)/N=C/c1cnc2ccc(Br)cn12 [PIK-75]
Effect on cell motility and invasion (PI3K): inhibits cell motility and invasion

C=C1[C@@H](C)[C@H]2[C@H](Cc3ccccc3)NC(=O)[C@]23[C@H](OC(C)=O)/C=C/[C@@](C)(O)C(=O)[C@@H](C)C/C=C/[C@H]3[C@@H]1O [cytochalasin D]
Effect on phosphorylation (activation) of HER3 (HER3): not affected; also recorded: remained the same | Effect on phosphorylation (activation) of HER3 (HER3; listed as Cytochalasin D): no effect | Effect on HRG-induced MTK1/HER3 association (in words) (MTK1/HER3 association; MCF-7 cells, 1 μg/ml cytochalasin D 30 minutes): disrupted the communication or signaling between HER3/ErbB3 and MTK1; also recorded: inhibited HRG induced MTK1/HER3 association; also recorded: inhibited MTK1 and HER3 association | Effect on HRG-induced MTK1/HER3 association (in words) (MTK1/HER3 association; MCF-7 cells, 1 μg/ml cytochalasin D 30 minutes, listed as Cytochalasin D): diminished interaction between MTK1 and HER3 | Decrease of interaction between HER3 and MTK1 (MTK1/HER3 association; MCF-7 cells, 1 μg/ml cytochalasin D 30 minutes, pY1289 HER3 immunoblot of MTK1 IP): ~60%

CS(=O)(=O)CCNCc1ccc(-c2ccc3ncnc(Nc4ccc(OCc5cccc(F)c5)c(Cl)c4)c3c2)o1 [lapatinib]
Effect on tyrosine phosphorylation of HER3 in lysates (HER3; MCF-7 cells, lapatinib 50-200 nM pre-treatment 1 hour, 10 nM HRG 12 minutes): effectively inhibited; also recorded: decreased | Effect of lapatinib on HRG-induced cell migration (MCF-7 cells [1]): significantly decreased cell migration | Effect on HRG-induced MTK1/HER3 association (MTK1/HER3 association): effectively inhibited; also recorded: attenuates MTK1/HER3 association; also recorded: inhibited association of MTK1 and HER3 | Effect on HRG-induced MTK1/HER3 association (MTK1/HER3 association; listed as Lapatinib): decreased the interaction between HER3 and MTK1 in a dose dependent manner | Effect on HRG-induced extracellular acidification (MCF-7 cells [2]; 250 nM lapatinib pre-treatment, 10 nM HRG 24 hours, media pH): significantly decreased; also recorded: inhibition of HRG-induced extracellular acidification

EGF: growth factor used to stimulate cells at 3.3 nM; activates EGFR and HER2 (NSDSECPLSHDGYCLHDGVCMYIEALDKYACNCVVGYIGERCQYRDLKWWELR; Epidermal growth factor; UniProt P01133 971-1023, looked up)
Cell proliferation on stimulation (MCF-7 cells [3]): proliferative response was detected; also recorded: induced cell proliferation | Extracellular acidification of cell culture media by stimulation (MCF-7 cells [2]; 10 nM HRG or 3.3 nM EGF, 24 hours, compared to vehicle): no effect; also recorded: did not induce extracellular acidification
